Results taken from patent US20200046703A1, “COMPOSITIONS AND METHODS FOR TREATMENT OF THE SIDE-EFFECTS ASSOCIATED WITH ADMINISTRATION OF THERAPEUTIC AGENTS” (ASYMMETRIC THERAPEUTICS, LLC, priority 2018, published 2020).
Where “and” joins values, the source holds several entries; their conditions need not be identical. Identical values can stand only once.

How the values were obtained:
[1] = Confluent HPEK cell viability with/without 5-FU; type: cell-based, human; conditions: human, confluent HPEK cells; 10 μM of 5-FU; read-out: viability compared to a control system without 5-FU
Procedure: (§1) Oxypurinol and allopurinol concentrations of 0.3 mM, 1.0 mM, and 3.0 mM, which are ten times higher than those used in the first set of experiments, were tested. An adenine concentration of 0.3 mM, which was the higher concentration used in the first set of experiments, was tested. The relative viability of the cells was determined after 120 hours.

confluent HPEK cells = assay: Confluent HPEK cell viability with/without 5-FU; type: cell-based, human; conditions: for relative cell viability (AVG): 120 hours; for Relative Protection against 5-FU toxicity / Relative Growth in the presence of 5-FU: HPEK confluent cells; for Relative Protection against 5-FU toxicity: fraction of viability loss prevented; for Relative Growth in the presence of 5-FU: viability with 5-FU divided by viability without 5-FU
Procedure: as §1

proliferating HPEK cells = assay: Proliferating HPEK cell viability with/without 5-FU; type: cell-based, human; conditions: 5-FU 10 μM alone; relative to control; 120 hours
Procedure: (§2) In another set of experiments, the results of which are shown in Table 2, proliferating HPEK cells, commonly used to assess skin tissue toxicity, were exposed to the clinically-relevant dose of 10 μM of 5-FU and different concentrations of oxypurinol, either alone or with different concentrations of adenine or uracil, using standard tissue culture methods and incubated at 37° C. Oxypurinol concentrations of 0.03 mM, 0.1 mM, and 0.3 mM were tested. Adenine and uracil concentrations of 0.1 mM and 0.3 mM were tested. The relative viability of the cells was determined after 120 hours.

[2] = as above; type: cell-based, human; conditions: human, proliferating HPEK cells; 10 μM of 5-FU; read-out: viability compared to a control system without 5-FU
Procedure: as §2

confluent NHEK cells = assay: Confluent NHEK cell viability with/without 5-FU; type: cell-based, human; conditions: for relative cell viability (AVG): 120 hours; for Relative Growth in the presence of 5-FU / Relative Protection against 5-FU toxicity: NHEK; for Relative Protection against 5-FU toxicity: fraction of viability loss prevented
Procedure: (§3) In yet another set of experiments, the results of which are shown in Table 4, confluent NHEK cells were exposed to the clinically-relevant dose of 10 μM of 5-FU and different concentrations of sodium hydroxide, oxypurinol, or allopurinol using standard tissue culture methods and incubated at 37° C. Sodium hydroxide concentrations of 1 mM, 2 mM, 3 mM, and 4 mM were tested. Oxypurinol and allopurinol concentrations of 0.1 mM, 0.3 mM, 1.0 mM, and 3.0 mM were tested, both in the presence and in the absence of 10 μM of 5-FU. The relative viability of the cells was determined after 120 hours. The sodium hydroxide trials were only performed to serve as a control.

[3] = Confluent NHEK cell viability with/without 5-FU; type: cell-based, human; conditions: human, confluent NHEK cells; 10 μM of 5-FU; read-out: viability compared to a control system without 5-FU
Procedure: as §3

proliferating HGEP cells = assay: Proliferating HGEP cell viability with/without 5-FU; type: cell-based, human; conditions: 5-FU 10 μM alone; relative to control; 120 hours
Procedure: (§4) In one set of experiments, the results of which are shown in Table 1, proliferating HGEP cells, commonly used to assess oral mucosal toxicity, were exposed to the clinically-relevant dose of 10 μM of 5-FU and different concentrations of oxypurinol, either alone or with different concentrations of adenine or uracil, using standard tissue culture methods and incubated at 37° C. Oxypurinol concentrations of 0.03 mM, 0.1 mM, and 0.3 mM were tested. Adenine and uracil concentrations of 0.1 mM and 0.3 mM were tested. The relative viability of the cells was determined after 120 hours.

[4] = as above; type: cell-based, human; conditions: human, proliferating HGEP cells; 10 μM of 5-FU; read-out: viability compared to a control system without 5-FU
Procedure: as §4

[5] = system: mucositis toxicity of 5-FU; conditions: maximally-tolerated oral dose of 800 mg/day; 5 μM of 5-FU; cited from earlier work
hand-foot syndrome = conditions: allopurinol at 3%, topical; cited from earlier work
[6] = 5-FU 10 μM alone, relative to control

With `O=c1[nH]cc(F)c(=O)[nH]1` [5-FU, 5-fluorouracil, reference compound] the viability at 120 h, 10 µM [1] was 65.1%, the “relative cell viability (AVG)” value (confluent HPEK cells; [6]) was 0.64 and 0.6421 and the “relative cell viability (AVG)” value (proliferating HPEK cells) was 0.6507. For the same compound, the viability at 120 h, 10 µM [2] was 65.1%, the “relative cell viability (AVG)” value (confluent NHEK cells; [6]) was 0.42 and 0.4165 and the viability at 120 h, 10 µM [3] was 41.6%. The “relative cell viability (AVG)” value (proliferating HGEP cells) was 0.6217 and the viability at 120 h, 10 µM [4] was 62.2%.
With `Oc1ncnc2[nH]ncc12` [Allopurinol, allopurinol] the “relative cell viability (AVG)” value (confluent HPEK cells; 0.3 mM, no 5-FU) was 1.1870, the “relative cell viability (AVG)” value (confluent HPEK cells; 0.3 mM, with 5-FU 10 μM) was 0.7303 and the “relative cell viability (AVG)” value (confluent HPEK cells; 1.0 mM, no 5-FU) was 1.2411. For the same compound, the “relative cell viability (AVG)” value (confluent HPEK cells; 1.0 mM, with 5-FU 10 μM) was 0.7748, the “relative cell viability (AVG)” value (confluent HPEK cells; 3.0 mM, no 5-FU) was 1.0410 and the “relative cell viability (AVG)” value (confluent HPEK cells; 3.0 mM, with 5-FU 10 μM) was 0.7528. The “Relative Protection against 5-FU toxicity” value (“Relative Protection” below) (confluent HPEK cells; 0.3 mM) was 0.2464, the “Relative Growth in the presence of 5-FU” value (confluent HPEK cells; 0.3 mM) was 0.6152 and the “Relative Protection” value (confluent HPEK cells; 1.0 mM) was 0.3709. The “Relative Growth in the presence of 5-FU” value (confluent HPEK cells; 1.0 mM) was 0.6243, the “Relative Protection” value (confluent HPEK cells; 3.0 mM) was 0.3092 and the “Relative Growth in the presence of 5-FU” value (confluent HPEK cells; 3.0 mM) was 0.7231. For the same compound, the “effect on cell viability in the presence of 5-FU” value (confluent HPEK cells; concentration range of 0.3 mM to 3.0 mM) was “protective effect”, the “prevention of mucositis toxicity of 5-FU” value [5] was “does not prevent the mucositis toxicity” and the “effect on cell viability in the presence of 5-FU” value (confluent NHEK cells; 0.1 mM to 3.0 mM) was “protective effect for confluent NHEK cells that was generally less than oxypurinol”. For the same compound, the “relative cell viability (AVG)” value (confluent NHEK cells; 0.1 mM, no 5-FU) was 1.0426, the “relative cell viability (AVG)” value (confluent NHEK cells; 0.1 mM, with 5-FU 10 μM) was 0.6303 and the “relative cell viability (AVG)” value (confluent NHEK cells; 0.1 mM, with 5-FU 10 μM, listed as allopurinol) was 0.63. The “relative cell viability (AVG)” value (confluent NHEK cells; 0.3 mM, no 5-FU) was 1.1285, the “relative cell viability (AVG)” value (confluent NHEK cells; 0.3 mM, with 5-FU 10 μM) was 0.5100 and the “relative cell viability (AVG)” value (confluent NHEK cells; 0.3 mM, with 5-FU 10 μM, listed as allopurinol) was 0.51. For the same compound, the “relative cell viability (AVG)” value (confluent NHEK cells; 1.0 mM, no 5-FU) was 1.1137, the “relative cell viability (AVG)” value (confluent NHEK cells; 1.0 mM, with 5-FU 10 μM) was 0.4370 and the “relative cell viability (AVG)” value (confluent NHEK cells; 1.0 mM, with 5-FU 10 μM, listed as allopurinol) was 0.44. The “Relative Growth in the presence of 5-FU” value (confluent NHEK cells; 3.0 mM, FIG. 2) was “less than 41%”, the “relative cell viability (AVG)” value (confluent NHEK cells; 3.0 mM, no 5-FU) was 1.0640 and the “relative cell viability (AVG)” value (confluent NHEK cells; 3.0 mM, with 5-FU 10 μM) was 0.4348. For the same compound, the “relative cell viability (AVG)” value (confluent NHEK cells; 3.0 mM, with 5-FU 10 μM, listed as allopurinol) was 0.44, the “Relative Protection” value (confluent NHEK cells; 0.1 mM) was 0.3664 and the “Relative Growth in the presence of 5-FU” value (confluent NHEK cells; 0.1 mM, viability with 5-FU divided by viability without 5-FU) was 0.6045. The “Relative Protection” value (confluent NHEK cells; 0.3 mM) was 0.1603, the “Relative Growth in the presence of 5-FU” value (confluent NHEK cells; 0.3 mM, viability with 5-FU divided by viability without 5-FU) was 0.4519 and the “Relative Protection” value (confluent NHEK cells; 1.0 mM) was 0.0352. For the same compound, the “Relative Growth in the presence of 5-FU” value (confluent NHEK cells; 1.0 mM, viability with 5-FU divided by viability without 5-FU) was 0.3924, the “Relative Protection” value (confluent NHEK cells; 3.0 mM) was 0.0314 and the “Relative Growth in the presence of 5-FU” value (confluent NHEK cells; 3.0 mM, viability with 5-FU divided by viability without 5-FU) was 0.4086. For the same compound, the “effect on cell viability in the absence of 5-FU” value (confluent NHEK cells; range of 0.1 mM to 3.0 mM) was “small positive effect” and the “therapeutic benefit against HFS” value (hand-foot syndrome) was “did not achieve an adequate therapeutic benefit”.
